Key:
[1] = tested on: PANC-1/IDX-1 cells; experiment: RT-PCR of islet β-cell specific transcripts, PANC-1/IDX-1 cells; assay type: cell-based, human; settings: Exendin-9 100 nM for 72 h
Method: PANC-1 cells were transfected with a pcDNA3 construct (Invitrogen; Carlsbad, Calif.) harboring the wild-type full-length IDX-1 cDNA using LipoTAXI (Catalog N. 204110; Mammalian Transfection Kit, Stratagene; La Jolla, Calif.). Control cells were transfected with the vector alone. The selection of positive (i.e. transfected) cells was carried out by culturing the cells in the presence of 400 μg/ml of G418 sulfate (GN-04, Omega; Tarzana, Calif.).
(§1) After the treatment of ARIP and PANC-1 cells with GLP-1, Exendin-9, or vehicle, for the described length of time and the various doses, the culture medium was removed and the cells were washed (twice) with serum-free medium. Total RNA was isolated using the TRiazol-method (Gibco-BRL), and treated with DNase (Amplification Grade, GibcoBRL) in 20 mmol/l Tris-HCL (pH 8.4), 2 mmol/l MgCl2, and 50 mmol/l KCl to remove any traces of contaminating genomic DNA. RNA (2.5 μg) was then subjected to reverse transcription (RT reagents; Promega; Madison, Wis.). RT-PCR was undertaken in a volume of 50 μl of buffer containing 50 mmol/l KCl, 10 mmol/l Tris-HCl, 3.5 mmol/l MgCl2, 200 μmol/l each dNTPs, and 0.4 μmol/l each of sense and antisense primers to rat or human insulin (depending on the specific cell from which the RNA was extracted). Amplification was performed for 30 cycles at the denaturing temperature of 94° C. for 1 min, annealing temperature of 60° C. for 45 sec, and an extension temperature of 72° C. for 1 min. […] These included more irregular and variable cell shapes, with a cytoplasm less homogenous and “rougher” in appearance than control culture.
(§2) Treatment with GLP-1 induces the differentiation of ductal epithelial cells into insulin-producing cells. FIG. 2 illustrates a series of cell cultures grown with or without GLP-1 (10 nM) for 72 h. […] Preabsorption of the antibody with an excess of human recombinant insulin prevented the staining of insulin-positive GLP-1 treated cells (data not shown). While treatment with GLP-1 turned the majority of ARIP cells into […] For β-actin, the annealing temperature was raised to 64° C. for 1 min and gene-specific primers were used. For GLP-1-receptor (GLP-R) the annealing temperature used was 55° C. All other experimental conditions to amplify GLUT2, glucokinase, and GLP-R mRNAs were identical to those described for the amplification of insulin mRNA. RT and PCR conditions for human transcripts were identical to those described for rat mRNAs.
(§3) Southern blotting with species-specific full length cDNA probes for insulin, GLUT-2, glucokinase, GLP-1 receptor and β-actin was performed as previously described. Y. Wang, R. Perfetti, N. H. Greig, H. W. Holloway, K. A. DeOre, C. Montrose-Rafizadeh, D. Elahi, J. M. Egan, “Glucagon-like peptide-1 can reverse the age-related decline in glucose tolerance in rats.” J Clin Invest 99:2883-2889, 1997.

[2] = tested on: ARIP cells; experiment: RT-PCR of islet β-cell specific transcripts, ARIP cells; assay type: cell-based, rat; settings: Exendin-9 100 nM for 72 h
Method: as §1, §2, §3

[3] = tested on: diabetic rats; settings: adult animals after subtotal pancreatectomy; cited from earlier work

Substance | effect on expression of β-cell-specific genes [1] | effect on expression of β-cell-specific genes [2] | effect on islet mass [3]
Exendin-9: the peptide receptor antagonist of GLP-1 | inhibited the expression of GLUT-2, insulin and glucokinase | inhibited the expression of GLUT-2, insulin and glucokinase | –
exendin4: an analog of the incretin hormone glucagon-like-peptide-1 | – | – | increase islet mass

Source: patent publication US6642003B2, “Human glucose-dependent insulin-secreting cell line” (Cedars-Sinai Medical Center, priority 2001, dated 2003)
